“Also recorded” adds a separate entry of the source. Read-outs that look alike come from different tables or passages of the source.
Tests used:
[1] = system: APTX knock-out cells DT40; assay: Camptothecin-induced apoptosis in DT40 sub-line with APTX inactivated by homologous recombination; format: cell-based, Chicken; settings: 15-25 nM, 72 hours, p<0.004
Description: (§1) Chicken parental B cell line DT40, a sub-line where ATPX was interrupted by means of homologous recombination and a derivative line where APTX was re-introduced in the knock-out cells were used (Abel I, et al., Nature 2006; 443: 713-6). Camptothecin-induced apoptosis was evaluated as has been previously described (Arango D, et al., Cancer Res 2001; 61: 4910-5; Arango D, et al., Br J Cancer 2003; 89: 1757-65). Briefly, 2.5×10^5 cells were seeded by triplicate in 6-well Falcon plates (Becton Dickinson) and were left to adhere for 24 hours before sucking out the medium and changing it with fresh medium containing 0, 15 or 25 nM camptothecin (Calbiochem, San Diego, Calif.). After 72 hours of treatment, both the adhered cells and those that floated were collected, they were washed two times with 2 ml of PBS, and resuspended in PBS containing 50 μg/ml propidium iodide, 0.1% sodium citrate, and 0.1% Triton X-100. The cells were stained overnight at 4° C. and the DNA content was analyzed using a cell separator (FACSCalibur; Becton Dickinson). The cell debris were discarded, and the proportion of cells with subdiploid DNA content typical of apoptotic cells was quantified using WinList 2.0 (Verity Software House, Inc.). All the experiments were carried out in triplicate, and the mean from three independent experiments is shown.

parental cells DT40 = assay: Camptothecin-induced apoptosis (subdiploid DNA content, propidium iodide FACS) in parental DT40 cells; format: cell-based, Chicken; settings: 15-25 nM, 72 hours
Description: as §1

[2] = system: DT40 knock-out cells with APTX re-introduced; assay: Camptothecin-induced apoptosis in DT40 knock-out cells with APTX re-introduced; format: cell-based, Chicken; settings: APTX knock-out DT40 cells with APTX reintroduced, 15-25 nM, 72 hours
Description: as §1

[3] = system: metastatic colorectal cancer; assay: Response, time to progression and survival of patients receiving irinotecan-based chemotherapy, by tumor aprataxin level; format: in vivo, human; settings: for time to progression (TTP) median: irinotecan-based treatment
Description: A total of 135 patients with metastatic colorectal cancer receiving irinotecan-based chemotherapy in Hospital Universitario Vall d'Hebron were included in the study. The response to the chemotherapeutic treatment was evaluated by means of computerized axial tomography (CAT) and a response was considered complete when the complete disappearance of metastatic lesions was observed. […] A lesion size reduction observed by CAT greater than 30% or an increase above 20% were considered as partial response or progressive disease, respectively. The study was conducted according to the research protocols approved by the Clinical Research Ethics Committee.
After the histological examination of tumor sample sections stained with hematoxylin and eosin and fixed with formalin embedded in paraffin, areas containing a large proportion of tumor cells were selected from the 135 patients. Cores of 1.2 mm of tumor samples from each patient were arranged in duplicate in a new paraffin block using an apparatus for preparing tissue matrices from Beecher Instruments (Beecher Instruments, Silver Spring, Md.).
4 μm unstained sections of the tissue microarrays were mounted on slides coated with 3-aminopropyl-triethoxy-silane (Sigma, St. Louis, Mo., USA). The sections were deparaffinized in xylene and rehydrated by means of a gradual series of alcohol and distilled water. The antigen was recovered with preheated 10 mM pH=6 citrate buffer for 20 minutes at 95° C. For the immunohistochemical analysis, the commercial Novolink polymer detection system was used according to the manufacturer's instructions (Novocastra Laboratories; Newcastle, UK). A rabbit anti-aprataxin polyclonal antibody made against the C-terminus end of human aprataxin was used at a dilution 1:100 (4° C. overnight; Aviva Systems Biology Corp.; San Diego, Calif.). The staining was viewed using a solution of 3,3′-diaminobenzidine (DAB) and the sections were counter stained in Mayer's hematoxylin, washed in water, dehydrated through a series of ethanol solution, clarified in xylene and mounted. The aprataxin levels were evaluated without knowing the clinical data. A semi-quantitative scale from 0 to 3 was used to measure the staining intensity. The absence of aprataxin staining was graded as 0 and the low, moderate and high aprataxin levels were graded as 1, 2, and 3, respectively (see FIG. 2A-D). The mean grading of samples in duplicate was used in subsequent analysis.
Survival curves were plotted using Kaplan and Meier method and the survival differences were evaluated using log-rank test. Cox's proportional hazard model was used to evaluate the simultaneous contribution of the following covariables in the overall survival: sex, age, histological grade, and tumor aprataxin levels. Fisher's exact test, Chi-squared test and Mann-Whitney test were used to evaluate the differences between clinicopathological parameters in patients with high and low aprataxin levels (see Table 1). It was considered that the p values of less than 0.05 indicated statistic significant.

| Compound | apoptosis induction / sensitization to CPT [1] | apoptosis induction (parental cells DT40) | CPT resistant phenotype after reintroduction of APTX [2] | Overall survival median [3] [months] | Overall survival median ([3]; Low aprataxin patients) [months] | Overall survival median ([3]; Total patients) [months] | hazard ratio, overall survival ([3]; high vs absent/low aprataxin, 95% CI 1.21-3.63, log-rank p=0.008) | hazard ratio, time to progression ([3]; moderate/high vs absent/low aprataxin, 95% CI 1.04-2.29, log-rank p=0.03) | time to progression (TTP) median ([3]; patients with absence or low aprataxin levels) [months] | time to progression (TTP) median ([3]; patients with moderate or high tumor aprataxin levels) [months] |
| --- | --- | --- | --- | --- | --- | --- | --- | --- | --- | --- |
| CC[C@@]1(O)C(=O)OCc2c1cc1n(c2=O)Cc2cc3ccccc3nc2-1 [CPT, camptothecin] | significantly sensitized; also recorded: significantly increased apoptosis induction | modest apoptosis induction | completely reestablished the CPT resistant phenotype; also recorded: fully reestablished the resistant phenotype | – | – | – | – | – | – | – |
| CCc1c2c(nc3ccc(OC(=O)N4CCC(N5CCCCC5)CC4)cc13)-c1cc3c(c(=O)n1C2)COC(=O)[C@]3(O)CC [irinotecan] | – | – | – | 19 | 36.7 | 26.3 | 2.1 | 1.5 | 9.2 | 5.5 |
